We go through 15 molecules from patent US5852210A, “Cinnamic acid derivatives” (G. D. Searle & Co., priority 1997, dated 1998).

For assay [1], the target named is T1, Human vitronectin receptor (αv β3) (Homo sapiens, UniProt P05106+P06756).
T1 construct: Human vitronectin receptor (αv β3) was purified from human placenta; from tissue; host or cells: human placenta
As to the kind of experiment: Vitronectin adhesion assay (solid phase receptor assay, αvβ3). It is filed as binding. The procedure: (§1) The activity of the compounds of the present invention was tested in the following assays.
Human vitronectin receptor (αv β3) was purified from human placenta as previously described [Pytela et al., Methods in Enzymology, 144:475-489 (1987)]. Human vitronectin was purified from fresh frozen plasma as previously described [Yatohgo et al., Cell Structure and Function, 13:281-292 (1988)]. Biotinylated human vitronectin was prepared by coupling NHS-biotin from Pierce Chemical Company (Rockford, Ill.) to purified vitronectin as previously described [Charo et al., J. Biol. Chem., 266(3):1415-1421 (1991)]. Assay buffer, OPD substrate tablets, and RIA grade BSA were obtained from Sigma (St. Louis, Mo.). Anti-biotin antibody was obtained from Calbiochem (La Jolla, Calif.). Linbro microtiter plates were obtained from Flow Labs (McLean, Va.). ADP reagent was obtained from Sigma (St. Louis, Mo.).
(§2) Solid Phase Receptor Assays
This assay was essentially the same as previously reported [Niiya et al., Blood, 70:475-483 (1987)]. The purified human vitronectin receptor (αv β3) was diluted from stock solutions to […] in Tris-buffered saline containing 1.0 mM Ca^++, Mg^++, and Mn^++, pH 7.4 (TBS^+++). The diluted receptor was immediately transferred to Linbro microtiter plates at 100 μL/well (100 ng receptor/well). The plates were sealed and incubated overnight at 4° C. to allow the receptor to bind to the wells. All remaining steps were at room temperature. The assay plates were emptied and 200 μL, of 1% RIA grade BSA in TBS^+++ (TBS^+++ /BSA) were added to block exposed plastic surfaces. Following a 2 hour incubation, the assay plates were washed with TBS^+++ using a 96 well plate washer. Logarithmic serial dilution of the test compound and controls were made starting at a stock concentration of 2 mM and using 2 nM biotinylated vitronectin in TBS^+++ /BSA as the diluent. This premixing of labeled ligand with test (or control) ligand, and subsequent transfer of 50 μL aliquots to the assay plate was carried out with a CETUS Propette robot; the final concentration of the labeled ligand was 1 nM and the highest concentration of test compound was 1.0×10^-4 M. The competition occurred for two hours after which all wells were washed with a plate washer as before. Affinity purified horseradish peroxidase labeled goat anti-biotin antibody was diluted 1:3000 in TBS^+++ /BSA and 125 μL were added to each well. After 30 minutes, the plates were washed and incubated with OPD/H2 O2 substrate in 100 mM/L Citrate buffer, pH 5.0. The plate was read with a microtiter plate reader at a wavelength of 450 nm and when the maximum-binding control wells reached an absorbance of about 1.0, the final A450 were recorded for analysis. The data were analyzed using a macro written for use with the EXCEL™ spreadsheet program. The mean, standard deviation, and % CV were determined for duplicate concentrations. The mean A450 values were normalized to the mean of four maximum-binding controls (no competitor added) (B-MAX). The normalized values were subjected to a four parameter curve fit algorithm [Rodbard et al., Int.

Assay [2] concerns the target T2, Human fibrinogen receptor (αIIb β3) (Homo sapiens, UniProt P05106+P08514).
T2 construct: Human fibrinogen receptor (αIIb β3) was purified from outdated platelets; from tissue; host or cells: human outdated platelets
Nature of the assay: Purified IIb/IIIa receptor assay (solid phase receptor assay). As to conditions: inhibition of binding of biotinylated human vitronectin (1 nM) to purified receptor; Table I. How it is done: as §1
Human fibrinogen receptor (αIIb β3) was purified from outdated platelets. (Pytela, R., Pierschbacher, M. D., Argraves, S., Suzuki, S., and Rouslahti, E. "Arginine-Glycine-Aspartic acid adhesion receptors", Methods in Enzymology 144(1987):475-489.) Human vitronectin was purified from fresh frozen plasma as described in Yatohgo, T., Izumi, M., Kashiwagi, H., and Hayashi, M., "Novel purification of vitronectin from human plasma by heparin affinity chromatography," Cell Structure and Function 13(1988):281-292. Biotinylated human vitronectin was prepared by coupling NHS-biotin from Pierce Chemical Company (Rockford, Ill.) to purified vitronectin as previously described. (Charo, I. F., Nannizzi, L., Phillips, D. R., Hsu, M. A., Scarborough, R. M., "Inhibition of fibrinogen binding to GP IIb/IIIa by a GP IIIa peptide", J. Biol. Chem. 266(3) (1991): 1415-1421.) Assay buffer, OPD substrate tablets, and RIA grade BSA were obtained from Sigma (St. Louis, Mo.). Anti-biotin antibody was obtained from Calbiochem (La Jolla, Calif.). Linbro microtiter plates were obtained from Flow Labs (McLean, Va.). ADP reagent was obtained from Sigma (St. Louis, Mo.).
as §2
This assay is essentially the same reported in Niiya, K., Hodson, E., Bader, R., Byers-Ward, V. Koziol, J. A., Plow, E. F. and Ruggeri, Z. M., "Increased surface expression of the membrane glycoprotein IIb/IIIa complex induced by platelet activation: Relationships to the binding of fibrinogen and platelet aggregation", Blood 70 (1987):475-483. The purified human fibrinogen receptor (αIIb β3) was diluted from stock solutions to 1.0 μg/mL in Tris-buffered saline containing 1.0 mM Ca^++, Mg^++, and Mn^++, pH 7.4 (TBS^+++). The diluted receptor was immediately transferred to Linbro microtiter plates at 100 μL/well (100 ng receptor/well). The plates were sealed and incubated overnight at 4° C. to allow the receptor to bind to the wells. All remaining steps were at room temperature. The assay plates were emptied and 200 μL of 1% RIA grade BSA in TBS^+++ (TBS^+++ /BSA) were added to block exposed plastic surfaces. Following a 2 hour incubation, the assay plates were washed with TBS^+++ using a 96 well plate washer. Logarithmic serial dilution of the test compound and controls were made starting at a stock concentration of 2 mM and using 2 nM biotinylated vitronectin in TBS^+++ /BSA as the diluent. This premixing of labeled ligand with test (or control) ligand, and subsequent transfer of 50 μL aliquots to the assay plate was carried out with a CETUS Propette robot; the final concentration of the labeled ligand was 1 nM and the highest concentration of test compound was 1.0×10^-4 M. The competition occurred for two hours after which all wells were washed with a plate washer as before. Affinity purified horseradish peroxidase labeled goat anti-biotin antibody was diluted 1:3000 in TBS^+++ /BSA and 125 μL were added to each well. After 30 minutes, the plates were washed and incubated with […]/H2 O2 substrate in 100 mM/L citrate buffer, pH 5.0. The plate was read with a microtiter plate reader at a wavelength of 450 nm and when the maximum-binding control wells reached an absorbance of about 1.0, the final A450 were recorded for analysis. The data were analyzed using a macro written for use with the EXCEL™ spreadsheet program. The mean, standard deviation, and % CV were determined for duplicate concentrations. The mean A450 values were normalized to the mean of four maximum-binding controls (no competitor added) (B-MAX). The normalized values were subjected to a four parameter curve fit algorithm, [Robard et al., Int.

The mark [3] stands for this setting: inhibition of binding of biotinylated human vitronectin (1 nM) to purified receptor, Table I, read-out: AvB3 IC50.

Where a name gives a salt, the structure may show the parent alone. Read-outs that look alike come from different tables or passages of the source.

What is called IC50 is the point on the concentration scale where inhibition reaches its midpoint.

T1 sequence (P06756 31-889 limits assumed): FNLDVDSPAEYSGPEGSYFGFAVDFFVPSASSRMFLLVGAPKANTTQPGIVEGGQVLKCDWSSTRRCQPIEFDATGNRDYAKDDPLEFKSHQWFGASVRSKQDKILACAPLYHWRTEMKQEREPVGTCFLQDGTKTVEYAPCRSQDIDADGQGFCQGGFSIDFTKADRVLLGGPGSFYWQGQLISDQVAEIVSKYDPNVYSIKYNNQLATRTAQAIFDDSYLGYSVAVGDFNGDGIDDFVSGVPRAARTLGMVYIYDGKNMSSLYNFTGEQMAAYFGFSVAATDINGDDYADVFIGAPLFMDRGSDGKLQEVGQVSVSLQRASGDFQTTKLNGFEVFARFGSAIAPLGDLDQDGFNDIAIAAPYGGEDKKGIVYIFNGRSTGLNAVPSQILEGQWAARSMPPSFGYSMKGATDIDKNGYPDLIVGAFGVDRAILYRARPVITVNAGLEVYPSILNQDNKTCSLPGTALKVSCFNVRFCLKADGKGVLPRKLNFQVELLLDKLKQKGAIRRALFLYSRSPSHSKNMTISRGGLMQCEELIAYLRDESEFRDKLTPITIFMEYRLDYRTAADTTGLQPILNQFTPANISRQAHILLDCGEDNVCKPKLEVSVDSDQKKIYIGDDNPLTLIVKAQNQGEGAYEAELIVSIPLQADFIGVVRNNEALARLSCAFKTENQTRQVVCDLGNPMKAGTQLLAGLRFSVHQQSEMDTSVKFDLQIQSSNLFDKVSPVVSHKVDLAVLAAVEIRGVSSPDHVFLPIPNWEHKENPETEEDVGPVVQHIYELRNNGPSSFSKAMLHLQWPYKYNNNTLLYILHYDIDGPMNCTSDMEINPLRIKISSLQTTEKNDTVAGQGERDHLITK
T1 sequence (P06756 891-1048 limits assumed): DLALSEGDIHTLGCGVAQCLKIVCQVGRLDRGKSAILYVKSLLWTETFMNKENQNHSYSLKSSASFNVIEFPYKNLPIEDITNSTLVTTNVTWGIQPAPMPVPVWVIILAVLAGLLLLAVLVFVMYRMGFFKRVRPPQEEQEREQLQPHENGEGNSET
T1 sequence (P05106 27-788): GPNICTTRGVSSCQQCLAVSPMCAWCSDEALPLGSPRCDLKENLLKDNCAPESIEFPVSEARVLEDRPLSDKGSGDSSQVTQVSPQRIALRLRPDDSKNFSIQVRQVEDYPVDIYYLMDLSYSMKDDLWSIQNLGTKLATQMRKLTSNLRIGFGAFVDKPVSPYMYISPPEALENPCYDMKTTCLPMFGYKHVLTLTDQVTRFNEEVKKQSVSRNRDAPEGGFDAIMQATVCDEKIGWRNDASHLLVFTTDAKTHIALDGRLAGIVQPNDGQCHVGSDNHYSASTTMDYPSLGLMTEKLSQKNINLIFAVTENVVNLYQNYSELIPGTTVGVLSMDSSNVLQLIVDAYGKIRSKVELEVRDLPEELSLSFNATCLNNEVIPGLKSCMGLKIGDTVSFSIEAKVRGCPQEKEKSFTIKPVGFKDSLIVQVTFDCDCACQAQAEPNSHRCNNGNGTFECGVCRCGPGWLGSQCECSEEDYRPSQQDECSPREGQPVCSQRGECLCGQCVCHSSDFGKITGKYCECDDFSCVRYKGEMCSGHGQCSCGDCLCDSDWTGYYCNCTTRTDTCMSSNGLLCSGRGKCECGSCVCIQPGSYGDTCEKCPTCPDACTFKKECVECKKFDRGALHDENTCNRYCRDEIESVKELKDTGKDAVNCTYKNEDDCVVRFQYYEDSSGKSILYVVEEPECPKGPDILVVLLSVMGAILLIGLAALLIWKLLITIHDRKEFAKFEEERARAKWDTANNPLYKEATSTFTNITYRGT
T2 sequence (P08514 32-887 limits assumed): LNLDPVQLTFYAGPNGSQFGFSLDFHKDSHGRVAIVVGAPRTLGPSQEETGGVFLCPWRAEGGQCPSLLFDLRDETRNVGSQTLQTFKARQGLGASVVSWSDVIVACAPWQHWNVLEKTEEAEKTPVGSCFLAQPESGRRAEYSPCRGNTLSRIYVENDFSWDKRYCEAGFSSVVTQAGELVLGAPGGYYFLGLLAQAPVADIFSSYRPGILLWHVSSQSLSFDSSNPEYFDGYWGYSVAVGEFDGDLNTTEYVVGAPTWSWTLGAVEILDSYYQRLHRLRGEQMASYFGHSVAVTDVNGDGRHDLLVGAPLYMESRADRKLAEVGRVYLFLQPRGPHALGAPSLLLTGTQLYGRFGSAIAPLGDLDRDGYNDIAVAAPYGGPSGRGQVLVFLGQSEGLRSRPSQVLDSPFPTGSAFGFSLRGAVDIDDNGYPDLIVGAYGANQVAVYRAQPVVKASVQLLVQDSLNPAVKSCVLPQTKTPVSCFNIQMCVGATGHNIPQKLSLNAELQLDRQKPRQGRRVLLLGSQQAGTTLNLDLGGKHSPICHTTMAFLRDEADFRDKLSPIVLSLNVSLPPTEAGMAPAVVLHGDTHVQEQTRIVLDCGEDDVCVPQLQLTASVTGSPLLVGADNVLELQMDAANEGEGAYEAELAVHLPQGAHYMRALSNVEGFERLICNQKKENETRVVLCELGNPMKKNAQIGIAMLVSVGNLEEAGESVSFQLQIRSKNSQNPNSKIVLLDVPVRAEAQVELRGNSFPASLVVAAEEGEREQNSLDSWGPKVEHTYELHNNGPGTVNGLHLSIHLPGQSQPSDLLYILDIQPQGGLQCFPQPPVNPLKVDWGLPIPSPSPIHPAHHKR
T2 sequence (P08514 891-1039 limits assumed): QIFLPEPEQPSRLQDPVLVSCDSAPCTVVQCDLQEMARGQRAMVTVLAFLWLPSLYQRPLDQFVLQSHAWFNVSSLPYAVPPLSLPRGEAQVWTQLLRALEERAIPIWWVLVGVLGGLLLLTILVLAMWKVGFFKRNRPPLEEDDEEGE
T2 sequence (P05106 27-788): as the sequence (P05106 27-788) above

As for `N=C(N)Nc1cccc(C(O)CCc2cccc(/C=C/C(=O)O)c2)c1` (racemic) [Example 96, 3-[3-[3-[3-[(aminoiminomethyl)amino]phenyl]-3-hydroxypropyl]phenyl]propenoic acid, trifluoroacetate salt], the IC50 in assay [1] (setting [3]) was determined as 207 nM; in assay [2] it was 15600 nM.
On the same counts, the results for `N=C(N)Nc1cccc(C(=O)Nc2ccc(C(=CC(=O)O)c3ccccc3)cc2)c1` (single isomer, unassigned) [Example 58, 3-[4-[[[3-[(aminoiminomethyl)amino]phenyl]-carbonyl]amino]phenyl]-3-phenylpropenoic acid, trifluoroacetate salt] are 79.8 nM and 2270 nM.
Regarding `COC(=O)/C=C/c1cccc(CNC(=O)c2cccc(NC(=N)N)c2)c1` [Example 1, methyl 3-[3-[[[[3-[(aminoiminomethyl)-amino]phenyl]carbonyl]amino]methyl]phenyl]-2-propenoate, trifluoroacetate salt], the values for the IC50 in assay [1] (setting [3]) and in assay [2] were 15800 nM and greater than 100000 nM, respectively.
On the same counts, the results for `N=C(N)Nc1cccc(C(=O)NCc2cccc(/C=C/C(=O)O)c2)c1` [Example 2, 3-[3-[[[[3-[(aminoiminomethyl)amino]phenyl]carbonyl]amino]methyl]phenyl]-2-propenoic acid, trifluoroacetate salt] are 13 nM and 657 nM.
On the same counts, the results for `CCOC(=O)/C=C/c1ccc(NC(=O)c2cccc(NC(=N)N)c2)cc1` [Example 3, ethyl 3-[4-[[[3-[(aminoiminomethyl)amino]phenyl]carbonyl]amino]phenyl]-2-propenoate, monohydrate trifluoroacetate salt] are 29000 nM and 32200 nM.
On the same counts, the results for `N=C(N)Nc1cccc(C(=O)Nc2ccc(/C=C/C(=O)O)cc2)c1` [Example 4, 3-[4-[[[3-[(aminoiminomethyl)amino]phenyl]carbonyl]amino]phenyl]-2-propenoic acid, trifluoroacetate salt] are 10.6 nM and 7.05 nM.
For `Cc1cc(/C=C/C(=O)O)ccc1NC(=O)c1cccc(NC(=N)N)c1` [Example 5, 3-[4-[[[3-[(arainoiminomethyl)amino]phenyl]carbonyl]amino]-3-methylphenyl]propenoic acid, trifluoroacetate salt], the 50% inhibitory concentration (IC50) in assay [1] (setting [3]) turned out to be 4.01 nM; in assay [2], 9.58 nM.
As for `CCc1cc(/C=C/C(=O)O)ccc1NC(=O)c1cccc(NC(=N)N)c1` [Example 7, 3-[4-[[[3-[(aminoiminomethyl)amino]phenyl]carbonyl]amino]-3-ethylphenyl]propenoic acid, trifluoroacetate salt], the half-inhibitory concentration (IC50) in assay [1] (setting [3]) worked out at 2.95 nM; in assay [2] it was 15.1 nM.
In the case of `N=C(N)Nc1cccc(C(=O)Nc2ccc(/C=C/C(=O)O)cc2Cl)c1` [Example 9, 3-[4-[[[3-[(aminoiminomethyl)amino]phenyl]-carbonyl]amino]3-chlorophenyl]propenoic acid, trifluoroacetate salt], the results for the IC50 in assay [1] (setting [3]) and in assay [2] were 3.46 nM and 11 nM, respectively.
Consider `N=C(N)Nc1cccc(C(=O)Nc2ccc(/C=C/C(=O)O)cc2F)c1` [Example 11, 3-[4-[[[3-[(aminoiminomethyl)aminolphenyl]carbonyl]-amino]-3-fluorophenyl]-2E-propenoic acid, trifluoroacetate salt], for which the half-maximal inhibitory concentration (IC50) is 7.07 nM in assay [1] (setting [3]) and 14.1 nM in assay [2].
The like results for `N=C(N)Nc1cccc(C(=O)Nc2ccc(/C=C/C(=O)O)cc2C(F)(F)F)c1` [Example 12, 3-[4-[[[3-[(aminoiminomethyl)amino]phenyl]carbonyl]amino]-3-(trifluoromethyl)phenyl]-2E-propenoic acid, trifluoroacetate salt] were, in that order, 155 nM and 670 nM.
Take `Cc1cc(/C=C/C(=O)O)cc(C)c1NC(=O)c1cccc(NC(=N)N)c1` [Example 13, 3-[4-[[[3-[(aminoiminomethyl)amino]phenyl]carbonyl]-amino]-3,5-dimethylphenyl]-2E-propenoic acid, trifluoroacetate salt]: the IC50 in assay [1] (setting [3]) was 23.1 nM; in assay [2] it was 2160 nM.
On the same counts, the results for `Cc1cc(/C=C/C(=O)O)cc(Cl)c1NC(=O)c1cccc(NC(=N)N)c1` [Example 15, 3-[4-[[[3-[(aminoiminomethyl)amino]phenyl]carbonyl]-amino]-3-chloro-5-methylphenyl]-2E-propenoic acid, trifluoroacetate salt] are 28.8 nM and 2620 nM.
For the molecule `N=C(N)Nc1cccc(C(=O)Nc2ccc(/C=C/C(=O)O)c(Cl)c2)c1` [Example 28, 3-[4-[[[3-[(aminoiminomethyl)amino]phenyl]carbonyl]-amino]-2-chlorophenyl]propenoic acid, trifluoroacetate salt], the half-inhibitory concentration (IC50) in assay [1] (setting [3]) worked out at 23.3 nM.
Take `N=C(N)NCCCCC(=O)NCC(=O)NC(CC(=O)O)c1cccnc1` (stereo not drawn) [β-[[2-[[5-[(aminoiminomethyl)amino]-1-oxopentyl]amino]-1-oxoethyl]amino]-3-pyridinepropanoic acid]: the IC50 in assay [1] (positive control included on each plate, read-out: αv β3 antagonist IC50 of positive control) is 3 to 10 nM.
